Measurements from patent publication US20240376436A1, “COMPOSITIONS AND METHODS FOR BIASING THE POLARITY OF ORGANOIDS” (STEMCELL TECHNOLOGIES CANADA INC., priority 2021, published 2024).

How the values were obtained:
[1] = system: apical-out organoids formed from human bronchial epithelial cells; test: Counting ciliated cells among dissociated apical-out airway organoids; assay type: cell-based; conditions: FIG. 3; for percentage of ciliated cells: first donor, highest concentrations of the titrated inhibitor in the organoid medium
Method: Cells were cultured and dissociated in accordance with Example 1, and seeded into Aggrewell™ 400 plates (STEMCELL Technologies) that were prepared in accordance with Example 2. Aggregates were generated by seeding roughly 1.2×10^5 cells per well (100 cells per microwell) of an Aggrewell™ 400 plate. The cells were seeded in 500 μL of apical-out organoid medium comprising a basal medium and an inhibitor of notch signaling. The AggreWell™ plate was centrifuged for 3 min at 100 g in order to sediment the cells to the bottom of the microwell. The plates were then incubated for 24 h to 144 h at 37° C. and 5% CO2.
(§1) After the aggregates were formed and sufficiently matured in accordance with Example 3, 500 μL of fresh apical-out airway organoid medium was added to each well. The aggregates were then resuspended using a P1000 pipette and each well distributed to two wells of a 24-well plate (prepared as described in Example 2). The aggregates were incubated under non-adherent conditions in apical-out airway organoid medium for up to 15 days. A partial medium change was performed every second day.
Apical-out airway organoids formed in accordance with Example 4 were harvested on day 15, transferred to a 15 ml tube, and centrifuged at 150 g for 5 min. The supernatant was removed, and the organoids were washed once with DMEM. The washed organoids were resuspended in ACCUTASE (STEMCELL Technologies) and were incubated for 15 minutes at room temperature, before being dissociated to single cells by pipetting vigorously with a P1000 pipette. The single-cell suspension was diluted 1:1 with trypan blue and was then loaded to a Hemocytometer where the cells were counted manually. At the time the dissociated cells are counted, the number of ciliated cells can also be determined by visual inspection.
In one experiment, apical-out organoids were formed from two donor samples in apical-out media formulated with different concentrations of an inhibitor of notch signaling and an inhibitor of TGFbeta signaling. […]

[2] = system: apical-out organoids generated from passage 6 pulmonary lineage cells; test: Imaging of ciliation of apical-out organoids; assay type: cell-based, human; conditions: passage 6 cells; medium comprising an inhibitor of TGFbeta signaling and Y-27632; FIG. 7A
Method: as §1
Fully mature organoids, formed in accordance with Example 4, were imaged using a standard microscope camera. For example, the organoids may be imaged using a Leica DMi8 or an EVOS M500.
Representative images of apical-out organoids generated from passage 6 pulmonary lineage cells from a donor are shown in FIG. 7.

| SMILES | percentage of ciliated cells [1] | ciliation of organoids (representative images) [2] | emergence of ciliated cells ([1]; second donor, lower concentrations in the organoid medium) |
| --- | --- | --- | --- |
| C[C@H](NC(=O)Cc1cc(F)cc(F)c1)C(=O)N[C@H](C(=O)OC(C)(C)C)c1ccccc1 [DAPT] | decreased percentage of ciliated cells | – | – |
| C[C@@H](N)[C@H]1CC[C@H](C(=O)Nc2ccncc2)CC1 [Y-27632] | – | patchy ciliation | – |
| Cc1cccc(-c2[nH]ncc2-c2ccnc3ccccc23)n1 [A77-01] | decreased percentage of ciliated cells | – | detrimental to the emergence of ciliated cells |
